Test results published in US20230416245A1, “ADENOSINE ANALOGS FOR THE TREATMENT OF DISEASE” (BIOINTERVENE, INC., priority 2020, published 2023).

Key:
ADORA3 = ADORA3 (Homo sapiens (Human), UniProt P0DMS8); test: Intracellular calcium release assay (FLIPR); format: cell-based; conditions: for EC50: CHO-K1 cells, Fluo-4, top concentration 10 μM, read-out: Cell Calcium Assay EC50; for Cell Calcium Efficacy (%): percentage of the response to NECA
Experimental: Example 32: Intracellular Calcium Release Assay
Cell Culture: The table below lists the cell lines used that stably express the 4 subtypes of adenosine receptors, along with the growth medium used for each:
For experiments with the ADORA1- and ADORA3-expressing cells, the medium was aspirated and the cells washed twice with 10 mL DPBS. Two mL of trypsin was added and incubated at 37° C. for 1 minute. Then 10 mL of platting media was added to terminate the digestion and 1 mL of the solution was taken out for cell counting. ADORA2A- and ADORA2B-expressing cells were thawed rapidly in a 37° C. water bath. Cell suspensions were transferred to 50 mL conical tubes. Plating media was added to the 10 mL mark and then 1 mL taken out for cell counting. The 50 mL tubes containing the various types of cells were centrifuged at 1000 g. Then the supernatants were aspirated, being careful not to aspirate the cells. The cell pellets were resuspended in 3-5 mL platting media, then 0.5 mL was taken out for cell counting. Then the cell suspension was diluted to 1×10^6 cells/mL (20,000 cells per 20 μL per well) in platting medium, and cells were seeded into 384-well cell plates (Greiner-781946). The 384-well cell plate was placed in a 37° C./5% CO2 incubator (Thermo-371, Thermo Scientific) for 16-20 hours.
Preparation of the intracellular calcium imaging agent (Fluo-4 Direct™ Calcium Assay Kit, Invitrogen-F10471, Thermo Scientific): One mL of FLIPR Assay Buffer was added to 77 mg probenecid to make a 250 mM solution, which was used fresh for each day. One vial of Fluo-4 Direct™ crystals was thawed and 10 mL of FLIPR Assay Buffer was added to the vial. 0.2 mL of probenecid was added to each 10 mL vial of Fluo-Direct™ solution, such that the final assay concentration was 2.5 mM. It was vortexed, left to stand >5 min and protected from light. The dye was prepared fresh each day.
Compound Preparation: Compound plates were prepared as follows. First, the test compound was diluted to prepare a 2 mM solution and then 10-point 3-fold serial dilutions were made using ECHO (ECHO 555, LabCyte), then 900 nL was transferred to the compound plate. For all targets, the final top concentration of the test compound was […]. For agonist reference compounds, 10-point and 3-fold serial dilutions were made, then 900 nL was transferred to the assay plate. Then 30 μL of assay buffer was added to the compound plate and then the plate was centrifuged at 1000 rpm for 1 min.
FLIPR Assay: Cell plates were removed from the incubator, to which were added 20 μL 2×Fluo-4 Direct™ solution, then the plates were reincubated in a 5% CO2, 37° C. incubator for 50 min and at RT for 10 min. To run the protocol on the Fluorescent Imaging Plate Reader (FLIPR) TETRA (MD-FT0249, Molecular Devices, Inc.), 10 μL of assay buffer was transferred from the 384-well plate (Greiner-781280) to the cell plates and then the fluorescence signal was read. Then 10 μL of compound solution was transferred from the compound plate to the cell plates and the fluorescence signal was read. The “Max-Min” was calculated, starting from Read 91 to the maximum allowed. For agonists, activation %=(RLU−LC)/(HC−LC)*100, based on the following: RLU=relative light unit, 91 to maximum allowed signal; HC=average signal of the high concentration of agonist; LC=average signal of DMSO well. The data were fitted using GraphPad Prism 5, using the model “log(agonist) vs. response—Variable slope” to determine the EC50 value. The receptor efficacy of the test compound relative to the agonist NECA was calculated as a percentage (%) of the response to […]. Table 10 includes EC50 values for compounds described herein.

[1] = molecular target: human adenosine A3 receptor (Homo sapiens (Human), UniProt P0DMS8); test: Intracellular cAMP levels (inhibition of forskolin-stimulated cAMP production); format: cell-based; conditions: for EC50: CHO cells expressing human adenosine A3 receptors, forskolin 10 μM; for CAMP Efficacy (%): maximal response as percentage of the response produced by 100 nM IB-MECA
From the text: Example 31: Intracellular cAMP Levels
The method followed is that published in Yates L, Clark J H, Martin T J, James S, Broadley K J, Kidd E J. Radioligand binding and functional responses of ligands for human recombinant adenosine A3 receptors. Auton Autacoid Pharmacol. 2006 April; 26(2):191-200.
Materials and Cell Culture: Adenosine deaminase was obtained from Roche (Lewes, UK). Forskolin was obtained from Sigma-Aldrich (Poole, UK). The sources of other materials are provided above in Example 1. CHO-K1 cells stably transfected with the human adenosine A3 receptor were grown in Dulbecco's modified Eagles medium with nutrient mixture F12 containing NaHCO3 and Glutamax. Media was supplemented with 10% fetal calf serum, geneticin (G418; 0.67 mg/mL), hygromycin (500 μg/mL) and adenosine deaminase (1 U/mL). Cells were maintained at 37° C. with 5% CO2 in air.
cAMP Measurements: Intracellular cAMP production was measured directly using a non-acetylation cAMP enzyme immunoassay (Amersham Biosciences, Little Chalfont, UK). Cultured CHO cells expressing human adenosine A3 receptors were allowed to plate overnight in 96-well plates in culture medium containing adenosine deaminase. Twenty-four hours later, they were incubated with adenosine analogues or compounds of the invention (0.1 nM-1 μM) for 5 min at 37° C., followed by incubation with forskolin (10 μM) for 10 min. The cells were then lysed with 200 μL of lysis reagent 1 provided with the kit for 10 min to release intracellular cAMP. Aliquots of the supernatants were then transferred to a 96-well microtitre plate coated with donkey anti-rabbit IgG; 100-μL cAMP standards (12.5-3200 fmol/well) were also added to the microtitre plate; 100 μL of rabbit anti-cAMP antibody was added to all wells and incubated at 2-5° C. for 2 h. The antiserum was made up in lysis reagent 2, which sequesters the key component in lysis reagent 1 and ensures that cAMP is free for subsequent analysis. Then 50 μL of cAMP peroxidase conjugate was added to all wells and left to incubate for 60 min at 2-5° C. to allow competition for the antibody between the un-labelled and horse radish peroxidase (HRP)-labelled cAMP. Wells were then washed with buffer and 150 μL of enzyme substrate containing 3,3′,5,5′-tetramethylbenzidine/hydrogen peroxide in 20% (v/v) dimethylformamide was added to each well and left to incubate for 60 min on a Titramax 100 microtitre plate shaker (Heidolph Instruments, Schwabach, Germany) at room temperature for color development. The reaction was stopped by the addition of 100 μL of 1 M sulfuric acid and the optical density (OD) read at 450 nm on a spectrophotometric MRX microplate reader (Dynex Technologies, Chantilly, VA, USA).
Analyses: Each sample/standard was analyzed in duplicate and the resulting OD values averaged. The percent bound (B/Bo) for each standard and sample was calculated using the following relationship: […]
where B is the specific OD for standard/sample and Bo is the specific OD for the zero standard. A standard curve was generated by plotting % B/Bo as a function of the log fmol cAMP standard per well. The fmol per well value for cAMP in each sample was then read from the graph. The results are expressed as a percent of control agonist response: (measured response/control response)*100 in the presence of the compounds of the invention. Concentration-response curves for inhibition of cAMP production were constructed for all compounds of the invention and reference compounds. The EC50 values (concentration producing a half-maximal response) were determined by non-linear regression analysis of the concentration-response curves generated with mean replicate values using Hill equation curve fitting, according to the equation:
where Y=response, A=left asymptote of the curve, D=right asymptote of the curve, C=compound concentration, and C50=EC50, and nH=slope factor. […]

Sequence of ADORA3 (P0DMS8 whole entry): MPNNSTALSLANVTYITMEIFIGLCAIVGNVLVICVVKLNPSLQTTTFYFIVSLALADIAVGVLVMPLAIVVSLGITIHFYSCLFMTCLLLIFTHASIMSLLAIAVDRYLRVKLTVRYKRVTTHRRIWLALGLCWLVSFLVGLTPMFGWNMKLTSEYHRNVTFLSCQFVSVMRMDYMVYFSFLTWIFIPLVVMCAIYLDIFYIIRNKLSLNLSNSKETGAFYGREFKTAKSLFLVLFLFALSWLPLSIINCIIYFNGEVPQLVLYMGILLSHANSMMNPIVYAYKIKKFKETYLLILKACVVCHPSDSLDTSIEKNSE
Sequence of human adenosine A3 receptor (P0DMS8 whole entry): as above

Row | SMILES | EC50 (ADORA3) | Cell Calcium Efficacy (%) (ADORA3) | EC50 [1] | CAMP Efficacy (%) [1]
1 | O[C@@H]1[C@H](O)[C@@H]2C[C@@H]2[C@H]1n1cnc2c(NCCF)nc(Cl)nc21 [Compound 36, (1R,2R,3S,4R,5S)-4-(2-chloro-6-((2-fluoroethyl)amino)-9H-purin-9-yl)bicyclo[3.1.0]hexane-2,3-diol] | 9.2 nM | 44.9% | – | –
2 | O[C@@H]1[C@H](O)[C@@H]2C[C@@H]2[C@H]1n1cnc2c(NCC(F)F)nc(C#CC3CC3)nc21 [Compound 38, (1R,2R,3S,4R,5S)-4-(2-(cyclopropylethynyl)-6-((2,2-difluoroethyl)amino)-9H-purin-9-yl)bicyclo[3.1.0]hexane-2,3-diol] | 14.5 nM | 24.7% | 1.8 nM | 65.1%
3 | CCNc1nc(C#CC2CC2)nc2c1ncn2[C@H]1[C@H](O)[C@H](O)[C@@H]2C[C@@H]21 [Compound 39, (1R,2R,3S,4R,5S)-4-(2-(cyclopropylethynyl)-6-(ethylamino)-9H-purin-9-yl)bicyclo[3.1.0]hexane-2,3-diol] | 9.8 nM | 15.4% | 0.2 nM | 54.4%
4 | Cc1cc(NCc2cc(F)ccc2F)c2ncn([C@H]3[C@H](O)[C@H](O)[C@@H]4C[C@@H]43)c2n1 [Compound 50, (1R,2R,3S,4R,5S)-4-(7-((2,5-difluorobenzyl)amino)-5-methyl-3H-imidazo[4,5-b]pyridin-3-yl)bicyclo[3.1.0]hexane-2,3-diol] | 54 nM | 12.3% | – | –
5 | CCNc1nc(Cl)nc2c1ncn2[C@H]1[C@H](O)[C@H](O)[C@]2(C(F)F)C[C@H]12 [Compound 53, (1S,2R,3S,4R,5S)-4-(2-chloro-6-(ethylamino)-9H-purin-9-yl)-1-(difluoromethyl)bicyclo[3.1.0]hexane-2,3-diol] | ≥ 10000 nM | 0.6% | – | –
6 | O[C@@H]1[C@H](O)[C@@H]2C[C@@H]2[C@H]1n1cnc2c(NCC(F)F)nc(C3CC3)nc21 [Compound 58] | 25.4 nM | 14.2% | – | –
7 | Cc1cc(COc2ccc(Cl)cc2CNc2cc(Cl)nc3c2ncn3[C@H]2[C@H](O)[C@H](O)[C@@H]3C[C@@H]32)on1 [Compound 75, (1R,2R,3S,4R,5S)-4-(5-chloro-7-((5-chloro-2-((3-methylisoxazol-5-yl)methoxy)benzyl)amino)-3H-imidazo[4,5-b]pyridin-3-yl)bicyclo[3.1.0]hexane-2,3-diol] | ≥ 10000 nM | 1.7% | – | –

Now from value to molecule:

Row | EC50 (ADORA3) | Cell Calcium Efficacy (%) (ADORA3) | EC50 [1] | CAMP Efficacy (%) [1] | SMILES
8 | 12.8 nM | 49.4% | – | – | O[C@@H]1[C@H](O)[C@@H]2C[C@@H]2[C@H]1n1cnc2c(NCC(F)(F)F)nc(Cl)nc21 [Compound 37, (1R,2R,3S,4R,5S)-4-(2-chloro-6-((2,2,2-trifluoroethyl)amino)-9H-purin-9-yl)bicyclo[3.1.0]hexane-2,3-diol]
9 | 36.7 nM | 31.3% | – | – | O[C@@H]1[C@H](O)[C@@H]2C[C@@H]2[C@H]1n1cnc2c(NCCF)cc(Cl)nc21 [Compound 41, (1R,2R,3S,4R,5S)-4-(5-chloro-7-((2-fluoroethyl)amino)-3H-imidazo[4,5-b]pyridin-3-yl)bicyclo[3.1.0]hexane-2,3-diol]
10 | 43.4 nM | 45.8% | – | – | O[C@@H]1[C@H](O)[C@@H]2C[C@@H]2[C@H]1n1cnc2c(NCC(F)(F)F)cc(Cl)nc21 [Compound 42, (1R,2R,3S,4R,5S)-4-(5-chloro-7-((2,2,2-trifluoroethyl)amino)-3H-imidazo[4,5-b]pyridin-3-yl)bicyclo[3.1.0]hexane-2,3-diol]
11 | 5.1 nM | 50.3% | – | – | CCNc1cc(Cl)nc2c1ncn2[C@H]1[C@H](O)[C@H](O)[C@@H]2C[C@@H]21 [Compound 43, (1R,2R,3S,4R,5S)-4-(5-chloro-7-(ethylamino)-3H-imidazo[4,5-b]pyridin-3-yl)bicyclo[3.1.0]hexane-2,3-diol]
12 | 51.2 nM | 33.1% | – | – | Cc1cc(NCC(F)F)c2ncn([C@H]3[C@H](O)[C@H](O)[C@@H]4C[C@@H]43)c2n1 [Compound 47, (1R,2R,3S,4R,5S)-4-(7-((2,2-difluoroethyl)amino)-5-methyl-3H-imidazo[4,5-b]pyridin-3-yl)bicyclo[3.1.0]hexane-2,3-diol]
13 | 37.6 nM | 13.1% | – | – | Cc1cc(NCCF)c2ncn([C@H]3[C@H](O)[C@H](O)[C@@H]4C[C@@H]43)c2n1 [Compound 48, (1R,2R,3S,4R,5S)-4-(7-((2-fluoroethyl)amino)-5-methyl-3H-imidazo[4,5-b]pyridin-3-yl)bicyclo[3.1.0]hexane-2,3-diol]
14 | 17.1 nM | 6.8% | – | – | CCNc1cc(C)nc2c1ncn2[C@H]1[C@H](O)[C@H](O)[C@@H]2C[C@@H]21 [Compound 49, (1R,2R,3S,4R,5S)-4-(7-(ethylamino)-5-methyl-3H-imidazo[4,5-b]pyridin-3-yl)bicyclo[3.1.0]hexane-2,3-diol]
15 | 110 nM | 7.2% | – | – | O[C@@H]1[C@H](O)[C@@H]2C[C@@H]2[C@H]1n1cnc2c(NCC(F)F)cc(C3CC3)nc21 [Compound 78]
